Source: US20110038829A1, “METHODS AND MATERIALS FOR TREATING DIARRHEA” (MAYO FOUNDATION FOR MEDICAL EDUCATION AND RESEARCH, priority 2009, published 2011)

Experiments:
healthy volunteers [1] = test: Scintigraphic gastrointestinal and colonic transit, CDC study; assay type: in vivo, human; settings: for AC t1/2 (ascending colon emptying) / CF 6 (colonic filling at 6 hours) / GC 4 (colonic geometric center) / GC 24 (colonic geometric center at 24 hours) / GC 48 (colonic geometric center at 48 hours) / GE t1/2: N = 20, mean ± SEM
Procedure: A double-blind, placebo-controlled, parallel-group, randomized study was conducted to evaluate the effects of oral sodium chenodeoxycholate (CDC) or placebo, once daily for 4 days, in healthy volunteers. In a second trial, oral colesevelam hydrochloride or placebo were administered for 12-14 days in patients with diarrhea-predominant irritable bowel syndrome (IBS-D). The study was approved by a review board and all participants signed informed consent. In both studies, allocation was concealed from the study investigators. In the first trial, participants were randomized to placebo, CDC 500 mg, or 1000 mg (20 per group). Sodium CDC (unconjugated) was purchased from Calbiochem (EMD Biosciences Inc., San Diego, Calif. 92121), and the Mayo pharmacy prepared identical placebo and CDC capsules, all of which were coated with the pH sensitive polymer, methacrylate (Eudragit® S-100, Rohm Pharmaceuticals, Darmstadt D-64293, Germany). The latter dissolves at the neutral pH found in the distal ileum and was used to ensure ileocolonic delivery of the CDC or placebo. All participants were screened for idiopathic bile acid malabsorption (BAM) with fasting serum 7alpha-hydroxy-4-cholesten-3-one (7αC4). 60 patients (mean age 38.7 years, 43 female) were enrolled to the study. Three groups (n=20 each) were randomized to one oral capsule daily containing placebo, 500 mg, or 1000 mg CDC, each for a period of 4 days. Gastrointestinal (GI) and colonic transit was conducted by a scintigraphic method (Burton et al., J. Nucl. Med., 38:1807-1810 (1997) and Cremonini et al., Aliment Pharmacol. Ther., 16:1781-1790 (2002)) during the last 48 hours of drug ingestion. An adaptation of an established scintigraphic method was used to measure gastrointestinal and colonic transit (Burton et al., J. Nucl. Med., 38:1807-1810 (1997) and Cremonini et al., Aliment Pharmacol. Ther., 16:1781-1790 (2002)). Patients with IBS-D had baseline measurement of colonic transit since this is known to be a significant covariate in treatment responses. The primary endpoints were the colonic geometric center (GC) at 24 hours (GC 24) and ascending colon (AC) emptying t1/2. […] The capsule was ingested following an overnight fast. After the capsule emptied from the stomach, a 99 mTc-sulfur colloid radiolabeled meal was ingested. It consisted of two scrambled eggs, one slice of whole wheat bread, and one glass of whole milk. This meal allowed measurement of gastric and small bowel transit. Subjects ingested standardized meals for lunch and dinner at 4 and 8 hours after the radiolabeled meal, respectively. Abdominal scans were obtained every hour for the first 6 hours (the first 4 hours for the assessment of gastric emptying) and at 8, 24, and 48 hours after ingestion of the ^111In capsule. The counts in the stomach and each of four colonic regions, ascending, transverse, descending, and combined sigmoid and rectum, were quantitated with a variable region of interest program. Counts were corrected for isotope decay, tissue attenuation, and downscatter of ^111In counts in the 99 mTc window. Gastric emptying t1/2 is a measure of the time for 50% of the radiolabeled meal (identifiable by radiolabeled tracer) to empty from the stomach. Colonic filling at 6 hours, or the proportion of the radiolabeled meal to have reached the colon at 6 hours, is an indirect measurement of small bowel transit time. Overall colonic transit was summarized as the colonic geometric center (GC) at specified times. The GC is the weighted average of counts in the different colonic regions (ascending (AC), transverse (TC), descending (DC), rectosigmoid (RS)) and stool, respectively 1 to 5. At any time, the proportion of counts in each colonic region is multiplied by its weighting factor as follows: (%AC×1+%TC×2+%DC×3+%RS×4+%stool×5)/100=GC Thus, a higher GC reflects a faster colonic transit. Ascending colon emptying was summarized by the t1/2 calculated by linear interpolation of values on the AC emptying curve.

healthy volunteers [2] = test: Daily stool diaries (bowel function), CDC study; assay type: in vivo, human; settings: for Ease of passage (scale1-7) / Stool consistency by Bristol Stool Form Scale / Stool frequency per day: N = 20, mean ± SEM
Procedure: 60 patients (mean age 38.7 years, 43 female) were enrolled to the study. Three groups (n=20 each) were randomized to one oral capsule daily containing placebo, 500 mg, or 1000 mg CDC, each for a period of 4 days. Gastrointestinal (GI) and colonic transit was conducted by a scintigraphic method (Burton et al., J. Nucl. Med., 38:1807-1810 (1997) and Cremonini et al., Aliment Pharmacol. Ther., 16:1781-1790 (2002)) during the last 48 hours of drug ingestion. All participants completed bowel function diaries that documented the time of each bowel movement, stool consistency (Bristol Stool Form Scale), the ease of passage (ranging from 1=“manual disimpaction” to 7=“incontinence”), and completeness of evacuation (1=“yes” and 0=“no”). In the first study, patients recorded diaries during at least 3 days of the baseline period and the 4 days of treatment. The diaries were recorded for at least 3 days of the baseline period and during the entire treatment period of the second study.

healthy volunteers [3] = system: healthy volunteers; design: species or system human; settings: in vivo
Procedure: An independent statistician, who otherwise was not involved in the study, generated the randomization codes, and the allocation was concealed. All clinical and laboratory study personnel were blinded throughout the study until all data were locked and analyzed. Clinical safety monitoring was conducted by the study investigators throughout the study. 60 patients (mean age 38.7 years, 43 female) were enrolled to the study. Three groups (n=20 each) were randomized to one oral capsule daily containing placebo, 500 mg, or 1000 mg CDC, each for a period of 4 days. Gastrointestinal (GI) and colonic transit was conducted by a scintigraphic method (Burton et al., J. Nucl. Med., 38:1807-1810 (1997) and Cremonini et al., Aliment Pharmacol. Ther., 16:1781-1790 (2002)) during the last 48 hours of drug ingestion.

[4] = CDC 500 mg once daily for 4 days
[5] = CDC 1000 mg once daily for 4 days

With `C[C@H](CCC(=O)[O-])[C@H]1CC[C@H]2[C@@H]3[C@H](O)C[C@@H]4C[C@H](O)CC[C@]4(C)[C@H]3CC[C@]12C.[Na+]` [CDC, sodium chenodeoxycholate] the “AC t1/2 (ascending colon emptying)” value (healthy volunteers [1]; [4]) was 12.1 ± 2.1 h, the “CF 6 (colonic filling at 6 hours)” value (healthy volunteers [1]; [4]) was 49.6 ± 7.0% and the “GC 4 (colonic geometric center)” value (healthy volunteers [1]; [4]) was 0.87 ± 0.18. The “GC 24 (colonic geometric center at 24 hours)” value (healthy volunteers [1]; [4]) was 2.80 ± 0.27, the “GC 48 (colonic geometric center at 48 hours)” value (healthy volunteers [1]; [4]) was 4.10 ± 0.21 and the “GE t1/2” value (healthy volunteers [1]; [4]) was 2.115 ± 0.0883 h. The “Treatment effect on colonic filling at 6 hours (in words)” value (healthy volunteers [1]; CDC 500 mg or 1000 mg vs placebo) was “not detected”, the “AC t1/2 (ascending colon emptying)” value (healthy volunteers [1]; [5]) was 10.7 ± 1.9 h and the “CF 6 (colonic filling at 6 hours)” value (healthy volunteers [1]; [5]) was 46.0 ± 7.1%. For the same molecule, the “GC 4 (colonic geometric center)” value (healthy volunteers [1]; [5]) was 1.27 ± 0.33, the “GC 24 (colonic geometric center at 24 hours)” value (healthy volunteers [1]; [5]) was 3.76 ± 0.30 and the “GC 48 (colonic geometric center at 48 hours)” value (healthy volunteers [1]; [5]) was 4.92 ± 0.05. For the same molecule, the “GE t1/2” value (healthy volunteers [1]; [5]) was 2.383 ± 0.235 h, the “Effect on colonic transit (GC) at 24 and 48 hours (in words)” value (healthy volunteers [1]; FIG. 3, 1000 mg p<0.0001, 500 mg p<0.01 vs placebo) was “overall acceleration of colonic transit” and the “Ease of passage (scale1-7)” value (healthy volunteers [2]; [4]) was 4.1 ± 0.06. For the same molecule, the “Stool consistency by Bristol Stool Form Scale” value (healthy volunteers [2]; [4]) was 4.29 ± 0.19, the “Stool frequency per day” value (healthy volunteers [2]; [4]) was 1.50 ± 0.18 per day and the “Effect on sense of complete evacuation (in words)” value (healthy volunteers [2]; CDC 500 mg or 1000 mg vs placebo, p=0.02) was “significant overall treatment effects”. The “Ease of passage (scale1-7)” value (healthy volunteers [2]; [5]) was 4.3 ± 0.06, the “Stool consistency by Bristol Stool Form Scale” value (healthy volunteers [2]; [5]) was 4.80 ± 0.15 and the “Stool frequency per day” value (healthy volunteers [2]; [5]) was 2.01 ± 0.15 per day. For the same molecule, the “Effect on stool form/consistency (in words)” value (healthy volunteers [2]; FIG. 3, p<0.0001) was “more liquid consistency stool”, the “Effect on stool frequency (in words)” value (healthy volunteers [2]; FIG. 3, p<0.001) was “increase in stool frequency” and the “Adverse event: headache, rate” value (healthy volunteers [3]) was 20-25%. The “Adverse events: gas, bloating and nausea, participants” value (healthy volunteers [3]) was 5-20%.
